Laboratory results published in doi:10.1101/2021.01.13.426390v3 (biorxiv, 2021).

Target: T1, AGR3 (Homo sapiens, UniProt Q8TD06)
T1 sequence (Q8TD06 22-166): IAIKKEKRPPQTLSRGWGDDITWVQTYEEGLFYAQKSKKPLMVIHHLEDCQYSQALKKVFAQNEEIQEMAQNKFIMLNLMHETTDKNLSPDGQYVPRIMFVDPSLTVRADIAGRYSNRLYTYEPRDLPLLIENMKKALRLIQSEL
Test: biotin probe labelling, non-reducing SDS-PAGE, streptavidin-AP blot
Format: binding
Conditions: covalent; labelled compound; 30 uM probe, pH 7.4, 37 C

O=C(CCCC[C@@H]1SC[C@@H]2NC(=O)N[C@@H]21)NCC(=O)N1C[C@@H]2CS(=O)(=O)SC[C@H]2C1 (racemic) [Biotin-GlyPyrDTDO] was tested, and the “biotin probe labelling, non-reducing SDS-PAGE, streptavidin-AP blot” value was “it was also labeled by Biotin-GlyPyrDTDO”.
